Reference: ChEMBL document CHEMBL1155074, “Is quantum mechanics necessary for predicting binding free energy?” (J Med Chem, 2008)
Square brackets hold non-standard residues; d marks the D form. Peptide text beside a SMILES is read from it. * marks the point of attachment. Phe(4-guanidino) = N=C(N)Nc1ccc(C[C@H](N)C(=O)O)cc1; Phe(4-Me) = Cc1ccc(C[C@H](N)C(=O)O)cc1; Phg = N[C@H](C(=O)O)c1ccccc1; Nle = CCCC[C@H](N)C(=O)O; Cbz = O=C(OCc1ccccc1)*; Bz = O=C(c1ccccc1)*; Bn = c1ccc(C*)cc1

Tested on: not listed separately
Assay: Inhibition of West Nile virus NS3 protease

Question: Which IC50 does the source give for `CCCC[C@H](NC(=O)c1ccccc1)C(=O)N[C@@H](CCCCN)C(=O)N[C@@H](CCCNC(=N)N)C(=O)N[C@H](C=O)Cc1ccc(NC(=N)N)cc1` (Bz-[Nle]KR[Phe(4-guanidino)]-aldehyde) here?
Answer: 11.8 µM

Question: Which IC50 does the source give for `CCCC[C@H](NC(=O)c1ccccc1)C(=O)N[C@@H](CCCCN)C(=O)N[C@@H](CCCNC(=N)N)C(=O)N[C@H](C=O)c1ccccc1` (Bz-[Nle]KR[Phg]-aldehyde) here?
Answer: 90.9 µM

Question: Which IC50 does the source give for `CCCC[C@H](NC(=O)c1ccccc1)C(=O)N[C@@H](Cc1ccccc1)C(=O)N[C@@H](CCCNC(=N)N)C(=O)N[C@H](C=O)CCCNC(=N)N` (Bz-[Nle]FRR-aldehyde) here?
Answer: 4.2 µM

Question: With `CCCC[C@H](NC(=O)c1ccccc1)C(=O)N[C@@H](CCCCN)C(=O)N[C@@H](Cc1ccccc1)C(=O)N[C@H](C=O)CCCNC(=N)N` (Bz-[Nle]KFR-aldehyde) as the compound, how does the IC50 read?
Answer: 108 µM

Question: For `CCCC[C@H](NC(=O)c1ccccc1)C(=O)N[C@@H](CCCCN)C(=O)N[C@@H](CCCNC(=N)N)C(=O)N[C@H](C=O)CCCCN` (Bz-[Nle]KRK-aldehyde), which IC50 is on record?
Answer: 57.7 µM

Question: With `C[C@H](NC(=O)c1ccccc1)C(=O)N[C@@H](CCCCN)C(=O)N[C@@H](CCCNC(=N)N)C(=O)N[C@H](C=O)CCCNC(=N)N` (Bz-AKRR-aldehyde) as the compound, how does the IC50 read?
Answer: 0.7 µM

Question: With `CCCC[C@H](NC(=O)c1ccccc1)C(=O)N[C@@H](CCCCN)C(=O)N[C@@H](CCC(N)=O)C(=O)N[C@H](C=O)CCCNC(=N)N` (Bz-[Nle]KQR-aldehyde) as the compound, how does the IC50 read?
Answer: 1.7 µM

Question: For `CCCC[C@H](NCc1ccccc1)C(=O)N[C@@H](CCCCN)C(=O)N[C@@H](CCCNC(=N)N)C(=O)N[C@H](C=O)Cc1c[nH]c2ccccc12`, which IC50 is on record?
Answer: 10 µM

Question: With `CCCC[C@H](NC(=O)c1ccccc1)C(=O)N[C@@H](CCCCN)C(=O)N[C@@H](CCCCN)C(=O)N[C@H](C=O)CCCNC(=N)N` (Bz-[Nle]KKR-aldehyde) as the compound, how does the IC50 read?
Answer: 1.9 µM

Question: Which IC50 does the source give for `Cc1ccc(C[C@@H](C=O)NC(=O)[C@H](CCCCNC(=O)OCc2ccccc2)NC(=O)[C@H](CCCCN)NC(=O)c2ccccc2)cc1` (Bz-Lys-Lys(Cbz)-[Phe(4-Me)]-aldehyde) here?
Answer: 43.3 µM

Question: With `Cc1ccc(C[C@@H](C=O)NC(=O)[C@H](Cc2ccc(OCc3ccccc3)cc2)NC(=O)c2ccccc2)cc1` (Bz-Tyr(Bn)-[Phe(4-Me)]-aldehyde) as the compound, how does the IC50 read?
Answer: 12.7 µM

Question: For `N=C(N)NCCC[C@H](NC(=O)[C@H](CCCCN)NC(=O)c1ccccc1)C(=O)N[C@H](C=O)Cc1ccccc1` (Bz-Lys-Arg-Phe-aldehyde), which IC50 is on record?
Answer: 71.1 µM

Question: For `N=C(N)NCCC[C@@H](C=O)NC(=O)[C@H](CCCNC(=N)N)NC(=O)[C@H](CCCCN)NC(=O)c1ccccc1` (Bz-Lys-Arg-Arg-aldehyde), which IC50 is on record?
Answer: 1.5 µM

Question: With `N=C(N)NCCC[C@H](NC(=O)[C@H](CCCCN)NC(=O)c1ccccc1)C(=O)N[C@H](C=O)Cc1ccc(OCc2ccccc2)cc1` (Bz-Lys-Arg-Tyr(Bn)-aldehyde) as the compound, how does the IC50 read?
Answer: 11.8 µM

Question: For `N=C(N)NCCC[C@@H](C=O)NC(=O)[C@H](CCCNC(=N)N)NC(=O)[C@H](CCCCN)Nc1cccnc1`, which IC50 is on record?
Answer: 1 µM

Question: With `N=C(N)NCCC[C@H](NC(=O)[C@H](CCCCN)NC(=O)c1ccccc1)C(=O)N[C@H](C=O)Cc1ccc(O)cc1` (Bz-Lys-Arg-Tyr-aldehyde) as the compound, how does the IC50 read?
Answer: 14.6 µM

Question: For `N=C(N)NCCC[C@@H](C=O)NC(=O)[C@H](CCCCNC(=O)OCc1ccccc1)NC(=O)c1ccccc1` (Bz-Lys(Cbz)-Arg-aldehyde), which IC50 is on record?
Answer: 436 µM

Question: For `Cc1ccc(C[C@@H](C=O)NC(=O)[C@H](CCCNC(=N)N)NC(=O)[C@H](CCCCN)NC(=O)c2ccccc2)cc1` (Bz-Lys-Arg-[Phe(4-Me)]-aldehyde), which IC50 is on record?
Answer: 17.7 µM

Question: For `CCCC[C@H](NC(=O)c1ccccc1)C(=O)N[C@@H](C)C(=O)N[C@@H](CCCNC(=N)N)C(=O)N[C@H](C=O)CCCNC(=N)N` (Bz-[Nle]ARR-aldehyde), which IC50 is on record?
Answer: 3.8 µM

Question: For `NCCCC[C@H](NC(=O)[C@H](Cc1ccccc1)NC(=O)c1ccccc1)C(=O)N[C@@H](CCCN=C(N)N)C(=O)N[C@H](C=O)CCCN=C(N)N` (Bz-FKRR-aldehyde), which IC50 is on record?
Answer: 1.2 µM

Question: Which IC50 does the source give for `CCCC[C@H](NC(=O)c1ccccc1)C(=O)N[C@@H](CCCCN)C(=O)N[C@@H](CCCNC(=N)N)C(=O)N[C@H](C=O)Cc1ccccc1` (Bz-[Nle]KRF-aldehyde) here?
Answer: 110 µM

Question: For `CCCC[C@H](NC(=O)c1ccccc1)C(=O)N[C@@H](CCCCN)C(=O)N[C@@H](CCCNC(=N)N)C(=O)N[C@H](C=O)Cc1cnc[nH]1` (Bz-[Nle]KRH-aldehyde), which IC50 is on record?
Answer: 43.1 µM

Question: With `CCCC[C@H](NC(=O)c1ccccc1)C(=O)N[C@@H](CCCCN)C(=O)N[C@@H](CCCNC(=N)N)C(=O)N[C@H](C=O)CCCNC(=N)N` (Bz-[Nle]KRR-aldehyde) as the compound, how does the IC50 read?
Answer: 4.1 µM

Question: With `N=C(N)NCCC[C@@H](C=O)NC(=O)[C@H](CCCCN)NC(=O)c1ccccc1` (Bz-Lys-Arg-aldehyde) as the compound, how does the IC50 read?
Answer: 1.4 µM

Question: For `N=C(N)NCCC[C@@H](C=O)NC(=O)[C@H](CCCNC(=N)N)NC(=O)c1ccccc1` (Bz-Arg-Arg-aldehyde), which IC50 is on record?
Answer: 3.9 µM

Question: Which IC50 does the source give for `CC(=O)N[C@@H](CCCCN)C(=O)N[C@@H](CCCCN)C(=O)N[C@H](C=O)CCCNC(=N)N` (Ac-Lys-Lys-Arg-aldehyde) here?
Answer: 0.4 µM

Question: Which IC50 does the source give for `N=C(N)NCCC[C@@H](C=O)NC(=O)[C@H](CC(N)=O)NC(=O)[C@H](CCCCN)NC(=O)c1ccccc1` (Bz-Lys-Asn-Arg-aldehyde) here?
Answer: 71.8 µM

Question: Which IC50 does the source give for `N=C(N)NCCC[C@H](NC(=O)c1ccccc1)C(=O)N[C@H](C=O)CCCCN` (Bz-Arg-Lys-aldehyde) here?
Answer: 57.5 µM

Question: For `Cc1ccc(C[C@H](NC(=O)[C@H](CCCCN)NC(=O)c2ccccc2)C(=O)N[C@H](C=O)CCCNC(=N)N)cc1` (Bz-Lys-[Phe(4-Me)]-Arg-aldehyde), which IC50 is on record?
Answer: 194 µM

Question: For `CCCC[C@H](NCc1ccccc1)C(=O)N[C@@H](CCCCN)C(=O)N[C@@H](CCCNC(=N)N)C(=O)N[C@H](C=O)Cc1ccc(C#N)cc1`, which IC50 is on record?
Answer: 62 µM

Question: Which IC50 does the source give for `CC(=O)N[C@@H](CCCCN)C(=O)N[C@@H](CCCNC(=N)N)C(=O)N[C@H](C=O)CCCNC(=N)N` (Ac-Lys-Arg-Arg-aldehyde) here?
Answer: 0.5 µM

Molecular target: Protease (Human immunodeficiency virus 1, UniProt Q9YQ12)
Sequence (Q9YQ12 whole entry): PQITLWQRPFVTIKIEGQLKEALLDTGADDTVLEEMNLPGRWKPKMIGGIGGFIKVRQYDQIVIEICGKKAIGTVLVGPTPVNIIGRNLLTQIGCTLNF
Assay: Inhibition of HIV1 protease

Question: With `CC(C)[C@H](NC(=O)N(C)Cc1ccccn1)C(=O)NC(Cc1ccccc1)[C@H](O)[C@H](O)[C@H](Cc1ccccc1)NC(=O)[C@@H](NC(=O)N(C)Cc1ccccn1)C(C)C` (stereo partly specified) as the compound, how does the Ki read?
Answer: 1100 nM

Question: Which Ki does the source give for `COC(=O)[C@@H](NC(=O)[C@@H](NC(=O)[C@H](C)N1CCC([C@H](C)NC(=O)[C@H](C)N)=C[C@@H](Cc2ccccc2)C1)C(C)C)C(C)C` here?
Answer: 437 nM

Question: With `O=C1N(Cc2ccc3ccccc3c2)[C@H](Cc2ccccc2)[C@H](O)[C@@H](O)[C@@H](Cc2ccccc2)N1Cc1ccc2ccccc2c1` as the compound, how does the Ki read?
Answer: 0.05 nM

Question: For `CC(=O)N[C@H](C(=O)N[C@H](C(=O)N[C@@H](CC(C)C)[C@@H](O)CC(=O)N[C@@H](C)C(=O)N[C@@H](CC(C)C)C(O)CC(=O)O)C(C)C)C(C)C` (single isomer, unassigned) [ACETYLPEPSTATIN], which Ki is on record?
Answer: 1100 nM

Question: With `CC1(C)S[C@H]([C@H](NC(=O)Cc2ccccc2)C(=O)NCc2ccccc2)N[C@H]1C(=O)N[C@H](Cc1ccccc1)[C@H](O)CC(=O)NCc1nc2ccccc2[nH]1` as the compound, how does the Ki read?
Answer: 3.2 nM
